Results taken from the NIST ThermoML archive (doi:10.1016/j.jct.2012.06.012).

Experiment: xn = mol fraction of the nth substance listed
Conditions: Liquid, Vibrating tube method

CCCCCCCCCC [decane] + CCO
Conditions | mass density [kg/m3]
323 K, 1000 kPa, x2 = 0.1011 | 707.24
323 K, 2000 kPa, x2 = 0.1011 | 708.19
323 K, 3000 kPa, x2 = 0.1011 | 709.13
323 K, 4000 kPa, x2 = 0.1011 | 710.05
323 K, 5000 kPa, x2 = 0.1011 | 710.96
323 K, 6000 kPa, x2 = 0.1011 | 711.86
323 K, 7000 kPa, x2 = 0.1011 | 712.75
323 K, 8000 kPa, x2 = 0.1011 | 713.62
323 K, 9000 kPa, x2 = 0.1011 | 714.5
323 K, 10000 kPa, x2 = 0.1011 | 715.37
323 K, 11000 kPa, x2 = 0.1011 | 716.23
323 K, 12000 kPa, x2 = 0.1011 | 717.09
323 K, 13000 kPa, x2 = 0.1011 | 717.94
323 K, 14000 kPa, x2 = 0.1011 | 718.79
323 K, 15000 kPa, x2 = 0.1011 | 719.61
323 K, 16000 kPa, x2 = 0.1011 | 720.42
323 K, 17000 kPa, x2 = 0.1011 | 721.22
323 K, 18000 kPa, x2 = 0.1011 | 722.01
323 K, 19000 kPa, x2 = 0.1011 | 722.76
323 K, 20000 kPa, x2 = 0.1011 | 723.51
323.03 K, 1000 kPa, x2 = 0.7526 | 729.67
323.03 K, 2000 kPa, x2 = 0.7526 | 730.66
323.03 K, 3000 kPa, x2 = 0.7526 | 731.64
323.03 K, 4000 kPa, x2 = 0.7526 | 732.61
323.03 K, 5000 kPa, x2 = 0.7526 | 733.56
323.03 K, 6000 kPa, x2 = 0.7526 | 734.49
323.03 K, 7000 kPa, x2 = 0.7526 | 735.43
323.03 K, 8000 kPa, x2 = 0.7526 | 736.37
323.03 K, 9000 kPa, x2 = 0.7526 | 737.3
323.03 K, 10000 kPa, x2 = 0.7526 | 738.24
323.03 K, 11000 kPa, x2 = 0.7526 | 739.17
323.03 K, 12000 kPa, x2 = 0.7526 | 740.08
323.03 K, 13000 kPa, x2 = 0.7526 | 741
323.03 K, 14000 kPa, x2 = 0.7526 | 741.9
323.03 K, 15000 kPa, x2 = 0.7526 | 742.78
323.03 K, 16000 kPa, x2 = 0.7526 | 743.66
323.03 K, 17000 kPa, x2 = 0.7526 | 744.51
323.03 K, 18000 kPa, x2 = 0.7526 | 745.35
323.03 K, 19000 kPa, x2 = 0.7526 | 746.18
323.03 K, 20000 kPa, x2 = 0.7526 | 746.98
323.06 K, 1000 kPa, x2 = 0.2507 | 709.58
323.06 K, 2000 kPa, x2 = 0.2507 | 710.54
323.06 K, 3000 kPa, x2 = 0.2507 | 711.48
323.06 K, 4000 kPa, x2 = 0.2507 | 712.41
323.06 K, 5000 kPa, x2 = 0.2507 | 713.33
323.06 K, 6000 kPa, x2 = 0.2507 | 714.23
323.06 K, 7000 kPa, x2 = 0.2507 | 715.12
323.06 K, 8000 kPa, x2 = 0.2507 | 716.01
323.06 K, 9000 kPa, x2 = 0.2507 | 716.9
323.06 K, 10000 kPa, x2 = 0.2507 | 717.78
323.06 K, 11000 kPa, x2 = 0.2507 | 718.65
323.06 K, 12000 kPa, x2 = 0.2507 | 719.53
323.06 K, 13000 kPa, x2 = 0.2507 | 720.39
323.06 K, 14000 kPa, x2 = 0.2507 | 721.24
323.06 K, 15000 kPa, x2 = 0.2507 | 722.08
323.06 K, 16000 kPa, x2 = 0.2507 | 722.91
323.06 K, 17000 kPa, x2 = 0.2507 | 723.72
323.06 K, 18000 kPa, x2 = 0.2507 | 724.51
323.06 K, 19000 kPa, x2 = 0.2507 | 725.28
323.06 K, 20000 kPa, x2 = 0.2507 | 726.04
332.86 K, 1000 kPa, x2 = 0.0937 | 699.25
332.86 K, 1000 kPa, x2 = 0.9014 | 736.03
332.86 K, 2000 kPa, x2 = 0.0937 | 700.26
332.86 K, 2000 kPa, x2 = 0.9014 | 737.11
332.86 K, 3000 kPa, x2 = 0.0937 | 701.26
332.86 K, 3000 kPa, x2 = 0.9014 | 738.18
332.86 K, 4000 kPa, x2 = 0.0937 | 702.24
332.86 K, 4000 kPa, x2 = 0.9014 | 739.22
332.86 K, 5000 kPa, x2 = 0.0937 | 703.21
332.86 K, 5000 kPa, x2 = 0.9014 | 740.19
332.86 K, 6000 kPa, x2 = 0.0937 | 704.16
332.86 K, 6000 kPa, x2 = 0.9014 | 741.29
332.86 K, 7000 kPa, x2 = 0.0937 | 705.1
332.86 K, 7000 kPa, x2 = 0.9014 | 742.31
332.86 K, 8000 kPa, x2 = 0.0937 | 706.03
332.86 K, 8000 kPa, x2 = 0.9014 | 743.33
332.86 K, 9000 kPa, x2 = 0.0937 | 706.94
332.86 K, 9000 kPa, x2 = 0.9014 | 744.36
332.86 K, 10000 kPa, x2 = 0.0937 | 707.85
332.86 K, 10000 kPa, x2 = 0.9014 | 745.34
332.86 K, 11000 kPa, x2 = 0.0937 | 708.77
332.86 K, 11000 kPa, x2 = 0.9014 | 746.35
332.86 K, 12000 kPa, x2 = 0.0937 | 709.67
332.86 K, 12000 kPa, x2 = 0.9014 | 747.33
332.86 K, 13000 kPa, x2 = 0.0937 | 710.57
332.86 K, 13000 kPa, x2 = 0.9014 | 748.31
332.86 K, 14000 kPa, x2 = 0.0937 | 711.45
332.86 K, 14000 kPa, x2 = 0.9014 | 749.26
332.86 K, 15000 kPa, x2 = 0.0937 | 712.31
332.86 K, 15000 kPa, x2 = 0.9014 | 750.21
